Our source for the inhibition and IC50 values is ChEMBL document CHEMBL1154080, “2D-QSAR and 3D-QSAR/CoMFA analyses of the N-terminal substituted anthranilic acid based CCK(1) receptor antagonists: 'Hic Rhodus, hic saltus'” (Bioorg Med Chem, 2009).

pIC50: −log10 of the molar value. Some results are limits rather than exact numbers.

The target of test [1] is T1, Cholecystokinin receptor type A (Rattus norvegicus) (UniProt P30551).
T1 sequence (whole entry): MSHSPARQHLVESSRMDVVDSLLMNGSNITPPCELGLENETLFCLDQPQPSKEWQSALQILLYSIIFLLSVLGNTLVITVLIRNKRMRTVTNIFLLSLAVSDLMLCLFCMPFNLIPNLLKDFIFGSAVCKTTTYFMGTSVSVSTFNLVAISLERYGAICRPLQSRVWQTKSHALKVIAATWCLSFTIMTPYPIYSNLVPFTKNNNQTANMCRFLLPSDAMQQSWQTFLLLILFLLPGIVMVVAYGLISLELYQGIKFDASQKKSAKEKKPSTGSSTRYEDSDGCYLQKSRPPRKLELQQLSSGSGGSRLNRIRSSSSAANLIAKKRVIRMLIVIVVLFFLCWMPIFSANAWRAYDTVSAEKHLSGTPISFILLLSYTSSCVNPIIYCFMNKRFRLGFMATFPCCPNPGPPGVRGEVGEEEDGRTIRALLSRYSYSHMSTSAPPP
Put plainly: Displacement of [125I]-CCK8 from CCK1 receptor in rat pancreatic acinar cells 10 uM. In general terms: Loss of bound radioactivity is the signal in a displacement assay; it reports binding, not function.

The species named for test [2] is Cavia porcellus. Put plainly: Displacement of [125I]-CCK8 from CCK2 receptor in guinea pig cerebral cortex at 30 uM. Type of test: tissue-based.
For test [3], the target named is T2, Cholecystokinin receptor type A (Rattus norvegicus, UniProt P30551).
T2 sequence (P30551 whole entry): T1 sequence (whole entry)
The test can be described thus: Displacement of [125I]-CCK8 from CCK1 receptor in rat pancreatic acinar cells.

A short description of test [4]: (§1) Displacement of [125I]-CCK8 from CCK2 receptor in guinea pig cerebral cortex. The test is classed as tissue-based, Cavia porcellus.
The species named for test [5] is Cavia porcellus. Described as §1. The test is classed as tissue-based. The settings on record: concentration not given here.
Test [6] has as its target T1, Cholecystokinin receptor type A (Rattus norvegicus). Put plainly: Displacement of [125I]-CCK8 from CCK1 receptor in rat pancreatic acinar cells at 1 uM.
For test [7], the species on record is Cavia porcellus. Put plainly: Displacement of [125I]-CCK8 from CCK2 receptor in guinea pig cerebral cortex at 3 uM. Type of test: tissue-based.
The target in test [8] is T1, Cholecystokinin receptor type A (Rattus norvegicus). The test can be described thus: Displacement of [125I]-CCK8 from CCK1 receptor in rat pancreatic acinar cells at 3 uM.

Broadly, the inhibition is the change of the read-out against control, counted positive when it falls. A high value points to strong suppression. In test [1], `O=C(Nc1ccccc1C(=O)NC(Cc1ccccc1)C(=O)O)c1ccc2[nH]ccc2c1` (racemic) came in with an inhibition of 41%. As to `O=C(CCc1ccccc1)Nc1ccccc1C(=O)NC(Cc1ccccc1)C(=O)O` (racemic), the values for the inhibition in test [1] and in test [2] were under 20% and 37%, respectively.

One may read the pIC50 as the negative decadic logarithm of the IC50, by convention in mol/L. A high value points to a small IC50. As for `O=C(Nc1ccccc1C(=O)NC(Cc1ccccc1)C(=O)O)c1cc2cc(F)ccc2[nH]1` (racemic), the pIC50 in test [3] is 6.50; in test [4] it was 4.97. `O=C(Nc1ccccc1C(=O)NC(Cc1ccccc1)C(=O)O)c1cc2ccccc2[nH]1` (racemic) had a negative logarithm of the IC50 (pIC50) in test [4] of 4.79. `O=C(Nc1ccccc1C(=O)N[C@@H](Cc1ccccc1)C(=O)O)c1cc2ccccc2[nH]1`: the negative logarithm of the IC50 (pIC50) in test [3] is 4.99. The same compound had an inhibition in test [5] of 52%. Turning to `O=C(Nc1ccccc1C(=O)NC(Cc1ccccc1)C(=O)O)c1cc2cc(OCc3ccccc3)ccc2[nH]1` (racemic), the inhibition in test [6] and in test [7] was under 20% in each case. Regarding `O=C(Nc1ccccc1C(=O)N[C@@H](Cc1ccccc1)C(=O)O)c1cc2cccc(F)c2[nH]1`, the negative logarithm of the IC50 (pIC50) in test [3] was 5.45; in test [4], 5.05. The corresponding values for `O=C(Nc1ccccc1C(=O)NC(Cc1ccccc1)C(=O)O)c1cc2c(F)cccc2[nH]1` (racemic) are 6.03 and 5.02. The corresponding values for `O=C(Nc1ccccc1C(=O)NC(Cc1ccccc1)C(=O)O)c1cc2cccc(F)c2[nH]1` (racemic) are 6.80 and 4.73. Take `CC1=C(C(=O)Nc2ccccc2C(=O)NC(Cc2ccccc2)C(=O)O)Cc2ccccc21` (racemic): the pIC50 in test [4] is 4.86.

Take `O=C(Nc1ccccc1C(=O)NC(Cc1ccccc1)C(=O)O)c1cc2ccccc2o1` (racemic): the negative-log IC50 (pIC50) in test [3] was 6.05; in test [4] it was 4.86.

Take `O=C(Nc1ccccc1C(=O)NC(Cc1ccccc1)C(=O)O)c1cccs1` (racemic): the negative-log IC50 (pIC50) in test [3] is 5.59. The inhibition in test [2] was determined as 24%. On to `O=C(Nc1ccccc1C(=O)NC(Cc1ccccc1)C(=O)O)c1ccc2ccccc2n1` (racemic), for which the inhibition in test [1] is 48%. This compound showed a negative-log IC50 (pIC50) in test [4] of 4.84. In test [4], `O=C(CCc1c[nH]c2ccccc12)Nc1ccccc1C(=O)NC(Cc1ccccc1)C(=O)O` (racemic) gave a pIC50 of 4.87. Take `O=C(Nc1ccccc1C(=O)N[C@H](Cc1ccccc1)C(=O)O)c1cc2ccccc2[nH]1`: the pIC50 in test [3] is 6.97; in test [4] it was 4.77.

`O=C(Nc1ccccc1C(=O)NC(Cc1ccccc1)C(=O)O)c1cnc2ccccc2c1` (racemic) had a pIC50 in test [4] of 4.73.

In test [8], `Cn1cccc1C(=O)Nc1ccccc1C(=O)NC(Cc1ccccc1)C(=O)O` (racemic) came in with an inhibition of 21%. As for `O=C(Nc1ccccc1C(=O)NC(Cc1ccccc1)C(=O)O)c1ccncc1` (racemic), the inhibition in test [8] was under 20%; in test [2], 26%.

As to `O=C(Nc1ccccc1C(=O)NC(Cc1ccccc1)C(=O)O)c1cccnc1` (racemic), the values for the inhibition in test [8] and in test [2] were under 20% and 44%, respectively. For `O=C(Nc1ccccc1C(=O)NC(Cc1ccccc1)C(=O)O)c1ccccn1` (racemic) the same measures were under 20% and 31%. On to `O=C(Nc1ccccc1C(=O)NC(Cc1ccccc1)C(=O)O)c1cc2c([nH]1)CCCC2` (racemic), for which, in test [4], the pIC50 is 4.15. On to `O=C(Nc1ccccc1C(=O)NC(Cc1ccccc1)C(=O)O)c1cc2ccc(F)cc2[nH]1` (racemic), for which the values for the negative-log IC50 (pIC50) in test [3] and in test [4] were 6.53 and 4.43, respectively. Regarding `O=C(Nc1ccccc1C(=O)NC(Cc1ccccc1)C(=O)O)c1cc2cc(F)cc(F)c2[nH]1` (racemic), in test [1], the inhibition came to 59%. In test [4], this compound had a negative-log IC50 (pIC50) of 5.03. In test [3], `O=C(Nc1ccccc1C(=O)NC(Cc1ccccc1)C(=O)O)c1cc2cc(Cl)ccc2[nH]1` (racemic) had a pIC50 of 5.73. For the same compound, the inhibition in test [2] was 31%. `O=C(NC(Cc1ccccc1)C(=O)O)c1ccccc1NC(=O)c1cccc2ccccc12` (racemic) yielded an inhibition in test [1] of under 20%. In test [4], this compound showed a negative-log IC50 (pIC50) of 5.18. For `O=C(NC(Cc1ccccc1)C(=O)O)c1ccccc1NC(=O)C12CC3CC(CC(C3)C1)C2` (racemic) the same measures were under 20% and 4.84. As to `CC(C)(C)CC(=O)Nc1ccccc1C(=O)NC(Cc1ccccc1)C(=O)O` (racemic), the results for the inhibition in test [1] and in test [2] were under 20% and 37%, respectively.

In turn, `Cn1c(C(=O)Nc2ccccc2C(=O)NC(Cc2ccccc2)C(=O)O)cc2ccccc21` (racemic) gave a negative logarithm of the IC50 (pIC50) in test [4] of 5.00. `O=C(Cc1c[nH]c2ccccc12)Nc1ccccc1C(=O)NC(Cc1ccccc1)C(=O)O` (racemic): the inhibition in test [1] was under 20%; in test [2], 23%. For the compound `O=C(Nc1ccccc1C(=O)N[C@H](Cc1ccccc1)C(=O)O)c1cc2cc(F)ccc2[nH]1`, the results for the pIC50 in test [3] and in test [4] were 6.82 and 4.17, respectively. The compound `O=C(NC(Cc1ccccc1)C(=O)O)c1ccccc1NC(=O)c1c[nH]c2ccccc12` (racemic) gave a pIC50 in test [4] of 4.52. As for `O=C(Nc1ccccc1C(=O)NC(Cc1ccccc1)C(=O)O)c1cc2cccc(C(F)(F)F)c2[nH]1` (racemic), the pIC50 is 6.27 in test [3] and 4.95 in test [4]. Regarding `COc1cc2cc(C(=O)Nc3ccccc3C(=O)NC(Cc3ccccc3)C(=O)O)[nH]c2cc1OC` (racemic), the inhibition in test [6] and in test [7] was under 20% throughout.

In the case of `O=C(Nc1ccccc1C(=O)NC(Cc1ccccc1)C(=O)O)c1ccco1` (racemic), the inhibition in test [8] was 24%; in test [2] it was 27%. Consider `Cn1c(C(=O)Nc2ccccc2C(=O)NC(Cc2ccccc2)C(=O)O)cc2cc([N+](=O)[O-])ccc21` (racemic), for which, in test [3], the pIC50 is 5.96. The same compound came in with an inhibition in test [7] of under 20%. For the compound `O=C(NC(Cc1ccccc1)C(=O)O)c1ccccc1NC(=O)c1nccc2ccccc12` (racemic), the negative logarithm of the IC50 (pIC50) in test [3] was 4.88. Besides, the inhibition in test [2] is 53%. `O=C(Nc1ccccc1C(=O)N[C@H](Cc1ccccc1)C(=O)O)c1cc2cccc(F)c2[nH]1`: the pIC50 in test [3] is 7.26; in test [4] it was 4.70. For `Cc1ccc2[nH]c(C(=O)Nc3ccccc3C(=O)NC(Cc3ccccc3)C(=O)O)cc2c1` (racemic) the same measures were 5.55 and 5.38. In test [4], `O=C(Nc1ccccc1C(=O)NC(Cc1ccccc1)C(=O)O)c1nc2ccccc2[nH]1` (racemic) showed a negative-log IC50 (pIC50) of 4.99.

For `Cc1c(C(=O)Nc2ccccc2C(=O)NC(Cc2ccccc2)C(=O)O)[nH]c2ccccc12` (racemic), the negative-log IC50 (pIC50) in test [3] is 5.69; in test [4] it was 5.01.

Regarding `O=C(/C=C/c1ccccc1)Nc1ccccc1C(=O)NC(Cc1ccccc1)C(=O)O` (racemic), the inhibition in test [2] came out at 49%.

The compound `O=C(NC(Cc1ccccc1)C(=O)O)c1ccccc1NS(=O)(=O)c1cccc2ccccc12` (racemic) gave an inhibition in test [1] of under 20%. The compound also had a pIC50 in test [4] of 5.23. `O=C(Nc1ccccc1C(=O)NC(Cc1ccccc1)C(=O)O)c1ccc[nH]1` (racemic): the inhibition in test [8] was under 20%. For the compound `CC(C)(C)C(=O)Nc1ccccc1C(=O)NC(Cc1ccccc1)C(=O)O` (racemic), the figures for the inhibition in test [1] and in test [2] were under 20% and 24%, respectively. For `O=C(Nc1ccccc1C(=O)NC(Cc1ccccc1)C(=O)O)c1cnccn1` (racemic), the inhibition in test [8] and in test [2] was under 20% in each case.

In test [4], `O=C(Nc1ccccc1C(=O)NC(Cc1ccccc1)C(=O)O)c1cc2ccccc2s1` (racemic) gave a pIC50 of 4.97. As to `O=C(NC(Cc1ccccc1)C(=O)O)c1ccccc1NC(=O)c1ccnc2ccccc12` (racemic), the inhibition in test [8] is under 20%. For the same compound, the negative logarithm of the IC50 (pIC50) in test [4] was 4.82. For `O=C(NC(Cc1ccccc1)C(=O)O)c1ccccc1NS(=O)(=O)c1ccc2ccccc2c1` (racemic), in test [1], the inhibition was under 20%. Besides, the pIC50 in test [4] is 5.14.

Turning to `COc1ccc2[nH]c(C(=O)Nc3ccccc3C(=O)NC(Cc3ccccc3)C(=O)O)cc2c1` (racemic), in test [8], the inhibition was 42%. The pIC50 in test [4] is 4.77.

With `O=C(Nc1ccccc1C(=O)NC(Cc1ccccc1)C(=O)O)C1=CC2CCCC2N1` (racemic), the pIC50 is 4.88 in test [3] and 4.22 in test [4]. `O=C(Nc1ccccc1C(=O)N[C@@H](Cc1ccccc1)C(=O)O)c1cc2cc(F)ccc2[nH]1`: the negative-log IC50 (pIC50) in test [3] was 4.52. This compound also came in with an inhibition in test [2] of 20%.

With `Cc1cccc2cc(C(=O)Nc3ccccc3C(=O)NC(Cc3ccccc3)C(=O)O)[nH]c12` (racemic), the pIC50 in test [3] is 6.17; in test [4] it was 4.99.

On to `O=C(Nc1ccccc1C(=O)NC(Cc1ccccc1)C(=O)O)c1cc2cc([N+](=O)[O-])ccc2[nH]1` (racemic), for which, in test [3], the pIC50 is 5.45. The inhibition in test [2] came out at 31%.

As for `O=C(Cc1ccccc1)Nc1ccccc1C(=O)NC(Cc1ccccc1)C(=O)O` (racemic), the inhibition in test [1] is under 20%; in test [2], 36%. Take `O=C(/C=C/c1ccccc1[N+](=O)[O-])Nc1ccccc1C(=O)NC(Cc1ccccc1)C(=O)O` (racemic): the results for the inhibition in test [8] and in test [2] were under 20% and 46%, respectively.
